Here are results for 17 compounds from ChEMBL document CHEMBL4732094, “Synthesis of some new benzoxazole derivatives and investigation of their anticancer activities” (Eur J Med Chem, 2021).

Data set [1] concerns C6. Put plainly: Cytotoxicity against rat C6 cells assessed as cell viability measured after 24 hrs by MTT assay. The class given is functional, cell-based. To be noted: C6, 24 h. Background: Tetrazolium dyes change colour on reduction, which living cells bring about.
Data set [2] relates to HepG2. Put plainly: Cytotoxicity against human HepG2 cells assessed as cell viability measured after 24 hrs by MTT assay. The format is functional, cell-based. The following applies: HepG2, 24 h.
Data set [3] is described as follows: Selectivity index, ratio of IC50 for cytotoxicity against mouse NIH3T3 cells to IC50 for cytotoxicity against rat C6 cells. To be noted: NIH3T3 cells versus C6 cells, read-out: Ratio IC50. The format is toxicity, cell-based.
Data set [4] can be described thus: Selectivity index, ratio of IC50 for cytotoxicity against mouse NIH3T3 cells to IC50 for cytotoxicity against human HepG2 cells. To be noted: NIH3T3 cells versus HepG2 cells, read-out: Ratio IC50. The format is toxicity, cell-based.
For data set [5], the system named is MCF7. Put plainly: Cytotoxicity against human MCF7 cells assessed as cell viability measured after 24 hrs by MTT assay. The class given is functional, cell-based. To be noted: MCF7, 24 h.
Data set [6] relates to HT-29. Put plainly: Cytotoxicity against human HT-29 cells assessed as cell viability measured after 24 hrs by MTT assay. The following applies: HT-29, 24 h. The class given is functional, cell-based.
Data set [7] relates to NIH3T3. Put plainly: Cytotoxicity against mouse NIH3T3 cells assessed as cell viability measured after 24 hrs by MTT assay. The class given is cell-based. The following applies: NIH3T3, 24 h.
The nature of data set [8]: Selectivity index, ratio of IC50 for cytotoxicity against mouse NIH3T3 cells to IC50 for cytotoxicity against human A549 cells. The format is toxicity, cell-based. To be noted: NIH3T3 cells versus A549 cells, read-out: Ratio IC50.
Data set [9] in a line: Selectivity index, ratio of IC50 for cytotoxicity against mouse NIH3T3 cells to IC50 for cytotoxicity against human HT-29 cells. The following applies: NIH3T3 cells versus HT-29 cells, read-out: Ratio IC50. The format is toxicity, cell-based.
The nature of data set [10]: Selectivity index, ratio of IC50 for cytotoxicity against mouse NIH3T3 cells to IC50 for cytotoxicity against human MCF7 cells. The class given is toxicity, cell-based. The following applies: NIH3T3 cells versus MCF7 cells, read-out: Ratio IC50.
The test system of data set [11] is A549. Put plainly: Cytotoxicity against human A549 cells assessed as cell viability measured after 24 hrs by MTT assay. The class given is functional, cell-based. The following applies: A549, 24 h.
Data set [12] concerns C6. Put plainly: Induction of apoptosis in rat C6 cells assessed as apoptotic cells at IC50 concentration measured after 24 hrs by Annexin V-FITC/PI staining based flow cytometry method relative to control. The format is functional.
Data set [13] relates to C6. Put plainly: Inhibition of DNA synthesis in rat C6 cells assessed as reduction in cell proliferation measured after 24 to 48 hrs by BrdU proliferation assay. The class given is functional, cell-based. To be noted: time 24-48 hrs.

Each structure is given as a SMILES string. Where only a bound is given, the exact number is not on record here.

One may read the IC50 as the point on the concentration scale where inhibition reaches its midpoint. On to `CN(C)CCCN1CCN(CC(=O)Nc2ccc(-c3nc4ccccc4o3)cc2)CC1`, for which the half-inhibitory concentration (IC50) in [1] amounted to 42.3 µM; in [2], 9.5 µM; in data set [5], 23.4 µM; in data set [6], 10.6 µM; in data set [7], 16.7 µM; in data set [11] it was 18.3 µM. For the same compound, the selectivity ratio in data set [3] turned out to be 0.39; in data set [4], 1.76; in data set [8] it was 0.91; in data set [9], 1.57; in [10], 0.71.

`O=C(CCl)Nc1ccc(-c2nc3cc(F)ccc3o2)cc1`: the 50% inhibitory concentration (IC50) in data set [1] was 2.99 µM; in data set [2] it was 8.12 µM; in [5], 3.26 µM; in data set [6], 6.93 µM; in data set [7] it was 9.19 µM; in data set [11], 37.7 µM. In addition, the selectivity ratio in data set [3] amounted to 3.07; in [4], 1.13; in data set [8], 0.24; in [9], 1.33; in data set [10] it was 2.82.

`Cc1cc(-c2nc3ccccc3o2)ccc1NC(=O)CCl`: the IC50 is 27.2 µM in data set [1]; 14.8 µM in [2]; 29.8 µM in data set [5]; 13.8 µM in data set [6]; 12.2 µM in [7]; 33.5 µM in data set [11]. In addition, the selectivity ratio worked out at 0.45 in data set [3]; 0.82 in [4]; 0.36 in data set [8]; 0.88 in data set [9]; 0.41 in data set [10].

As to `Cc1ccc2oc(-c3ccc(NC(=O)CN4CCN(CCN(C)C)CC4)c(C)c3)nc2c1`, the half-maximal inhibitory concentration (IC50) amounted to 16.6 µM in data set [1]; 12.8 µM in [2]; 90.3 µM in data set [5]; 7.24 µM in data set [6]; 5.67 µM in [7]; 11 µM in data set [11]. The selectivity ratio in data set [3] was determined as 0.34; in data set [4], 0.44; in data set [8] it was 0.51; in [9], 0.78; in data set [10] it was 0.06.

For the compound `Cc1cc(-c2nc3cc(Cl)ccc3o2)ccc1NC(=O)CCl`, the half-inhibitory concentration (IC50) is above 100 µM in [1]; 35 µM in data set [2]; above 100 µM in data set [5]; above 100 µM in data set [6]; 8.64 µM in [7]; 91.5 µM in [11]. In addition, the selectivity ratio in data set [3] is below 0.09; in data set [4] it was 0.25; in [8] it was 0.09; in [9], below 0.09; in data set [10], below 0.09.

Consider `Cc1cc(-c2nc3ccccc3o2)ccc1NC(=O)CN1CCN(CCN(C)C)CC1`, for which the IC50 stood at 42.7 µM in [1]; 19.9 µM in [2]; 41.6 µM in [5]; 12.9 µM in data set [6]; 63.5 µM in [7]; 30.5 µM in [11]. The selectivity ratio in data set [3] is 1.49; in [4], 3.2; in data set [8], 2.09; in data set [9] it was 4.94; in data set [10], 1.53.

`Cc1cc(-c2nc3cc(Cl)ccc3o2)ccc1NC(=O)CN1CCN(CCCN(C)C)CC1`: the IC50 in [1] amounted to 14.2 µM; in data set [2], 11.2 µM; in [5], 63.4 µM; in [6], 9.15 µM; in data set [7] it was 28.6 µM; in data set [11] it was 10.5 µM. Moreover, the selectivity ratio in data set [3] was 2.01; in data set [4], 2.56; in data set [8], 2.73; in [9], 3.12; in data set [10], 0.45.

On to `Cc1ccc2oc(-c3ccc(NC(=O)CCl)cc3)nc2c1`, for which the half-maximal inhibitory concentration (IC50) in [1] turned out to be 4.04 µM; in data set [2], 21.5 µM; in data set [5] it was 4.62 µM; in data set [6], 15.2 µM; in data set [7] it was 11.6 µM; in data set [11], 36.1 µM. Also, the selectivity ratio was determined as 2.86 in data set [3]; 0.54 in data set [4]; 0.32 in data set [8]; 0.76 in data set [9]; 2.5 in data set [10].

Consider `Cc1cc(-c2nc3cc(F)ccc3o2)ccc1NC(=O)CN1CCN(CCCN(C)C)CC1`, for which the 50% inhibitory concentration (IC50) in [1] worked out at 11.8 µM; in data set [2], 7.15 µM; in data set [5], 7.77 µM; in [6], 6.7 µM; in data set [7], 65.7 µM; in [11], 12.2 µM. Besides, the selectivity ratio in data set [3] is 5.59; in data set [4], 9.19; in data set [8] it was 5.39; in data set [9] it was 9.8; in data set [10], 8.45.

Turning to `Cc1ccc2oc(-c3ccc(NC(=O)CN4CCN(CCCN(C)C)CC4)c(C)c3)nc2c1`, the IC50 in data set [1] came out at 7.32 µM; in data set [2], 5.65 µM; in data set [5], 19.8 µM; in data set [6], 12.7 µM; in [7], 13.2 µM; in [11], 15.3 µM. Also, the selectivity ratio in data set [3] was 1.81; in data set [4], 2.34; in data set [8], 0.87; in data set [9] it was 1.04; in data set [10] it was 0.67.

For `Cc1cc(-c2nc3cc(Cl)ccc3o2)ccc1NC(=O)CN1CCN(CCN(C)C)CC1`, the 50% inhibitory concentration (IC50) in [1] was 13.5 µM; in data set [2] it was 3.88 µM; in data set [5], 39.3 µM; in [6], 13.2 µM; in data set [7], 19.2 µM; in [11], 24.4 µM. Moreover, the selectivity ratio in data set [3] came to 1.43; in [4] it was 4.95; in data set [8] it was 0.79; in [9] it was 1.45; in [10] it was 0.49.

Consider `Cc1cc(-c2nc3cc(F)ccc3o2)ccc1NC(=O)CCl`, for which the IC50 was above 100 µM in [1]; 16.6 µM in data set [2]; above 100 µM in data set [5]; 25.4 µM in [6]; 10.5 µM in [7]; 64.5 µM in [11]. Besides, the selectivity ratio in [3] was below 0.11; in data set [4] it was 0.63; in data set [8], 0.16; in data set [9], 0.41; in data set [10], below 0.11.

`Cc1ccc2oc(-c3ccc(NC(=O)CN4CCN(CCCN(C)C)CC4)cc3)nc2c1`: the Activity in data set [12] was 14%. For the same compound, in data set [13], the inhibition entry is “Dose-dependent effect”. Also, the IC50 came to 1.81 µM in data set [1]; 3.16 µM in data set [2]; 19.1 µM in data set [5]; 3.89 µM in data set [6]; 26.4 µM in data set [7]; 10.6 µM in data set [11]. Moreover, the selectivity ratio in data set [3] stood at 14.6; in [4], 8.36; in data set [8], 2.5; in data set [9], 6.79; in data set [10], 1.38.

As to `CN(C)CCCN1CCN(CC(=O)Nc2ccc(-c3nc4cc(F)ccc4o3)cc2)CC1`, the IC50 in data set [1] is 27.5 µM; in [2], 9.18 µM; in data set [5], 14.8 µM; in data set [6], 2.59 µM; in data set [7] it was 21.9 µM; in [11], 12.2 µM. The selectivity ratio was determined as 0.8 in data set [3]; 2.39 in data set [4]; 1.8 in data set [8]; 8.46 in data set [9]; 1.49 in data set [10].

Turning to `Cc1cc(-c2nc3cc(F)ccc3o2)ccc1NC(=O)CN1CCN(CCN(C)C)CC1`, the concentration for half-maximal inhibition (IC50) in data set [1] was found to be 10.7 µM; in [2] it was 9.46 µM; in data set [5], 10.4 µM; in data set [6], 6.6 µM; in [7], 62.1 µM; in data set [11] it was 7.37 µM. Moreover, the selectivity ratio was 5.8 in data set [3]; 6.56 in data set [4]; 8.42 in [8]; 9.41 in data set [9]; 5.96 in data set [10].

As to `Cc1ccc2oc(-c3ccc(NC(=O)CCl)c(C)c3)nc2c1`, the half-maximal inhibitory concentration (IC50) in data set [1] was determined as 97.6 µM; in data set [2], 54.8 µM; in data set [5] it was 96.5 µM; in data set [6] it was 13.8 µM; in data set [7], 6.79 µM; in data set [11] it was 61.8 µM. In addition, the selectivity ratio in [3] was 0.07; in data set [4], 0.12; in data set [8], 0.11; in data set [9], 0.49; in data set [10] it was 0.07.

Consider `CN(C)CCN1CCN(CC(=O)Nc2ccc(-c3nc4ccccc4o3)cc2)CC1`, for which the half-maximal inhibitory concentration (IC50) in [1] came to 7.01 µM; in data set [2], 16.3 µM; in data set [5], 59.4 µM; in [6] it was 5.31 µM; in data set [7], 35.8 µM; in [11] it was 18.7 µM. The selectivity ratio in data set [3] was 5.11; in [4], 2.2; in data set [8], 1.92; in [9], 6.74; in data set [10], 0.6.
